The test system of data set [1] is C57b1/6 female mice. Kind of data set: Rapid preclinical method, d9-choline challenge in mice (Example 6). Type of data set: in vivo. The settings on record: for Calculated EC50 (mg/kg) compared to Vehicle Control: mice, oral gavage with 2 mg d9-Choline, Time 3 hr.
For data set [2], the target named is recombinant D. alaskensis Cut C/D lysate (Oleidesulfovibrio alaskensis, UniProt Q30W70). The experiment in a line: biochemical.
Data set [3] has as its system mice (C57b1/6). The experiment in a line: Preclinical screening method, plasma TMAO in mice on 1% choline added diet (Example 4). Type of data set: in vivo. The conditions noted are these: oral gavage once daily, 310 mg/kg/day.
Data set [4] deals with whole cell wild-type P. mirabilis. The experiment in a line: Inhibition of conversion of choline to TMA by whole cell wild-type P. mirabilis (Example 5). The format is cell-based.
Data set [5] concerns the target recombinant P. mirabilis Cut C/D lysate (Proteus mirabilis, UniProt B4EYG1). Kind of data set: biochemical.
Data set [6] relates to human fecal polymicrobial community. Kind of data set: Human fecal polymicrobial incubation with d9-choline, TMA inhibition (Example 3). Type of data set: cell-based.
For data set [7], the system named is Proteus mirabilis 29906 (Pm) lysate. The experiment in a line: Inhibition of formation of TMA from choline in Proteus mirabilis lysate (Example 2). The format is biochemical. The settings on record: read-out: TMA Inhibition (IC50, mol/L).
Data set [8] concerns fecal polymicrobial community. The conditions noted are these: male, human.
The mark [9] stands for this setting: Homo sapiens, 0.2% fecal slurry, 50 μM d9-choline chloride, 20 hours, 37° C., anaerobic, ND=not detectable, read-out: Example 3, TMA Inhibition (IC50, mol/L).
Setting [10] is: Pm lysate 1.5 mg/mL protein, 50 μM d9-choline chloride, 37° C. two hours.
[11] abbreviates: Proteus mirabilis; read-out: EC50 (mol/L) whole cell wild-type P. mirabilis.

Like-named read-outs stand apart in the source and are kept apart here.

Sequence of recombinant D. alaskensis Cut C/D lysate (Q30W70 whole entry): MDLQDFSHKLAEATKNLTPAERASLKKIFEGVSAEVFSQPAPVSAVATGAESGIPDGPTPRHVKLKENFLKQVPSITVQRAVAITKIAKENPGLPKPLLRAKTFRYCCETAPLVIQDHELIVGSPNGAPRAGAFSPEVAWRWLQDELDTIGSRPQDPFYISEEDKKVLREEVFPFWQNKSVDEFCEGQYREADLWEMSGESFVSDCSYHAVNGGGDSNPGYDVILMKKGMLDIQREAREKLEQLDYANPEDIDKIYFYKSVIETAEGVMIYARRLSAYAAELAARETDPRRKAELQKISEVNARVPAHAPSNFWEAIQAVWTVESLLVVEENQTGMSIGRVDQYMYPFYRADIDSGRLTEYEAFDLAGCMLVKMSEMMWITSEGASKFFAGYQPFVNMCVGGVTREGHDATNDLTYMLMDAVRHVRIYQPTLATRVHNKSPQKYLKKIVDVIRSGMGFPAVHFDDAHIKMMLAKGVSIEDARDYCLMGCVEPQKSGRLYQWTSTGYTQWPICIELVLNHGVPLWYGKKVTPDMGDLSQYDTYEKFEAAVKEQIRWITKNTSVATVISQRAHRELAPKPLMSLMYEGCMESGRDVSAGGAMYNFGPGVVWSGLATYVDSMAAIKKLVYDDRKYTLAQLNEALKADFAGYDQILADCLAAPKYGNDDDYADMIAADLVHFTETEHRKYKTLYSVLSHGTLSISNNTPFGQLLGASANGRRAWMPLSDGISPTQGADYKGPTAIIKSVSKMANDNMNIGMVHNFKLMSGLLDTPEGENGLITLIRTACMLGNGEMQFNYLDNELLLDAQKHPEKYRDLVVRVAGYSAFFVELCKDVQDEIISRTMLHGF

`C[S+](CI)CCO` (stereo not shown) [ID 6, Iodomethyl-(2-hydroxyethyl)-methyl-sulfonium]: the “Calculated EC50 (mg/kg) compared to Vehicle Control” value in data set [1] is on record as 1.10 mg/kg. Moreover, the figures for the IC50 in data set [2] and in data set [5] were 3700 nM and 360 nM, respectively. In addition, the “Remaining plasma TMAO as a percentage of plasma TMAO in same day vehicle control (% of control remaining)” value in data set [3] (Days 1) is on record as 3%. Moreover, the EC50 in data set [4] (Proteus mirabilis, read-out: EC50 (mol/L) whole cell wild-type P. mirabilis) stood at 200 nM.

As for `C[S+](CCO)Cc1ccccc1` (stereo not shown) [compound 13], the IC50 in data set [6] (setting [9]) was found to be 12.7 µM; in data set [7] (setting [10]), 44.7 µM.

In the case of `C#CC[S+](CCO)c1ccccc1` (stereo not shown) [compound 5, (2-hydroxyethyl)(phenyl)(prop-2-yn-1-yl)sulfonium], in data set [7] (setting [10]), the IC50 is 200 µM.

As to `C[S+](CCO)CCBr` (stereo not shown) [compound 11, (2-bromoethyl)(2-hydroxyethyl)methylsulfonium], the IC50 amounted to 3.05 µM in data set [6] (Homo sapiens, 20 h, read-out: Example 3, TMA Inhibition (IC50, mol/L)) and 0.219 µM in data set [7].

On to `C#CC[S+](C)C` [ID 20, Dimethyl(prop-2-ynyl)sulfonium], for which, in data set [1], the “Calculated EC50 (mg/kg) compared to Vehicle Control” value is 9.00 mg/kg. Further, the IC50 was found to be 68 nM in data set [2] and 13 nM in data set [5]. Also, the “Remaining plasma TMAO as a percentage of plasma TMAO in same day vehicle control (% of control remaining)” value in data set [3] (Days 1) was 0.35%. Also, the EC50 in data set [4] (setting [11]) turned out to be 75000 nM.

As for `CCCCCC[S+](C)CCO` (stereo not shown) [compound 4, Hexyl-(2-hydroxyethyl)-methyl-sulfonium], the results for the IC50 in data set [6] (setting [9]) and in data set [7] (setting [10]) were 612 µM and 58.9 µM, respectively.

Turning to `C=CC[S+](C)C` [ID 21, Allyl(dimethyl)sulfonium], the “Calculated EC50 (mg/kg) compared to Vehicle Control” value in data set [1] was 0.19 mg/kg. Further, the IC50 was 410 nM in data set [2] and 250 nM in data set [5]. In addition, the EC50 in data set [4] (setting [11]) turned out to be 160 nM.

In the case of `C[S+](C/C=C/Br)CCO` (stereo not shown) [compound 10, [(E)-3-bromoallyl]-(2-hydroxyethyl)-methyl-sulfonium], the IC50 in data set [7] (setting [10]) is 0.251 µM.

In the case of `C=CC[S+](C)CCO` (stereo not shown) [ID 1, Allyl-(2-hydroxyethyl)-methyl-sulfonium], in data set [1], the “Calculated EC50 (mg/kg) compared to Vehicle Control” value is 0.87 mg/kg. In addition, the IC50 in data set [2] worked out at 307 nM; in data set [5], 98.2 nM. The “Remaining plasma TMAO as a percentage of plasma TMAO in same day vehicle control (% of control remaining)” value in data set [3] (Days 1) was 18%. For the same compound, the EC50 in data set [4] (setting [11]) stood at 73 nM.

As for `C=CC[S+](C)CCO` (stereo not shown) [compound 1, Allyl-(2-hydroxyethyl)-methyl-sulfonium], the IC50 came out at 41.7 µM in data set [6] (setting [9]) and 0.0457 µM in data set [7] (setting [10]).

Take `CCCC[S+](C)CCO` (stereo not shown) [compound 14, Butyl-(2-hydroxyethyl)-methyl-sulfonium]: the IC50 came out at 0.557 µM in data set [6] (setting [9]) and 29.5 µM in data set [7] (setting [10]).

As to `C#CC[S+]1CCOCC1` [compound 24, 4-prop-2-ynyl-1,4-oxathian-4-ium], the IC50 in data set [7] (setting [10]) turned out to be 55 µM.

Consider `C=C(C)C[S+](C)CCO` (stereo not shown) [ID 9, 2-hydroxyethyl-methyl-(2-methylallyl)sulfonium], for which the figures for the IC50 in data set [2] and in data set [5] were 650 nM and 5900 nM, respectively. Besides, the EC50 in data set [4] (setting [11]) amounted to 23000 nM.

Turning to `C=CC[S+](C)C` [compound 21], the figures for the IC50 in data set [6] (setting [9]) and in data set [7] (setting [10]) were 1.46 µM and 0.0661 µM, respectively.

On to `CC[S+](CCO)c1ccccc1` (stereo not shown) [compound 17, Phenyl-(2-hydroxyethyl)-ethyl-sulfonium], for which the IC50 stood at 760 µM in data set [6] (setting [9]) and 190 µM in data set [7] (setting [10]).

Take `CCCCC[S+](C)CCO` (stereo not shown) [compound 3, Pentyl-(2-hydroxyethyl)-methyl-sulfonium]: the IC50 in data set [6] (setting [9]) stood at 51.3 µM; in data set [7] (setting [10]), 398 µM.

Turning to `C/C=C/C[S+](C)CCO` (stereo not shown) [compound 8, [(E)-but-2-enyl]-(2-hydroxyethyl)-methyl-sulfonium], in data set [7] (setting [10]), the IC50 was 0.0151 µM.

Turning to `C#CC[S+](C)CCO` (stereo not shown) [compound 2, Propargyl-(2-hydroxyethyl)-methyl-sulfonium], the IC50 in data set [6] (setting [9]) turned out to be 2.98 µM; in data set [7] (setting [10]), 0.038 µM.

Turning to `C=C(C)C[S+](C)CCO` (stereo not shown) [compound 9, 2-hydroxyethyl-methyl-(2-methylallyl)sulfonium], the IC50 in data set [7] (setting [10]) came to 166 µM.

`OCC[S+]1CCOCC1` [compound 23, 2-(1,4-oxathian-4-ium-4-yl)ethanol]: the IC50 in data set [7] was found to be 10.7 µM.

For `C#CC[S+](C)CCO` (stereo not shown) [ID 2, Propargyl-(2-hydroxyethyl)-methyl-sulfonium], the “Calculated EC50 (mg/kg) compared to Vehicle Control” value in data set [1] is on record as 85.50 mg/kg. Further, the IC50 in data set [2] amounted to 65 nM; in data set [5], 47 nM. Moreover, the EC50 in data set [4] (setting [11]) came out at 930 nM.

Take `C/C=C/C[S+](C)CCO` (stereo not shown) [ID 8, [(E)-but-2-enyl]-(2-hydroxyethyl)-methyl-sulfonium]: the IC50 in data set [2] stood at 270 nM; in data set [5], 1500 nM. Moreover, in data set [3] (Days 1), the “Remaining plasma TMAO as a percentage of plasma TMAO in same day vehicle control (% of control remaining)” value came to 62%. The EC50 in data set [4] (setting [11]) stood at 9500 nM.

For the compound `C#CC[S+](C)C` [compound 20], the IC50 came to 0.108 µM in data set [6] (setting [9]) and 0.01 µM in data set [7] (setting [10]).

With `C=CC[S+]1CCOCC1` [compound 7, 4-allyl-1,4-oxathian-4-ium], the IC50 in data set [7] (setting [10]) turned out to be 15.8 µM.

For `[O-][S+]1CCOCC1` [compound 19, 4-oxido-1,4-oxathian-4-ium], the IC50 in data set [6] (read-out: Example 3, TMA Inhibition (IC50, mol/L)) came out at 24.3 µM; in data set [7], 234 µM.

For the compound `C[S+](CCO)CC(=O)O` (stereo not shown) [ID 15, 2-Acetic acid-(2-hydroxyethyl)-methyl-sulfonium], the IC50 in data set [2] (read-out: IC50 (mol/L) recombinant D. alaskensis Cut C/D lysate) came out at 45 nM; in data set [5] (read-out: IC50 (mol/L) recombinant P. mirabilis Cut C/D lysate) it was 430 nM. Besides, the “Remaining plasma TMAO as a percentage of plasma TMAO in same day vehicle control (% of control remaining)” value in data set [3] (Days 5) was 69%. Further, the EC50 in data set [4] (read-out: EC50 (mol/L) whole cell wild-type P. mirabilis) is 62 nM.

As to `C[S+](CCO)c1ccccc1` (stereo not shown) [compound 16, Phenyl-(2-hydroxyethyl)-methyl-sulfonium], the IC50 was determined as 1.64 µM in data set [6] (setting [9]) and 302 µM in data set [7] (setting [10]).

For the compound `C[S+](CI)CCO` (stereo not shown) [compound 6], the “Lowest concentration tested at which cell viability was 10% or lower” value in data set [8] amounted to 250 µM. In addition, the IC50 in data set [7] was determined as 2.04 µM.

On to `C=CC[S+]([O-])CCO` (stereo not shown) [compound 22, Allyl-(2-hydroxyethyl)-oxido-sulfonium], for which the IC50 was determined as 101 µM in data set [6] (setting [9]) and 3.8 µM in data set [7] (setting [10]).

As for `CC[S+](C)CCO.[I-]` (stereo not shown) [Methylethylthioethanol iodide], the IC50 in data set [6] (Homo sapiens, read-out: IC50, inhibits the conversion of choline to TMA, assay of Example 3) was determined as 8.89 µM. In data set [1] (time not given), the “EC50, inhibits the conversion of choline to TMA, assay of EXAMPLE 6” value stood at 0.8 mg/kg.

For `[O-][S+](CCO)c1ccccc1` (stereo not shown) [compound 18, 2-hydroxyethyl-oxido-phenyl-sulfonium], the results for the IC50 in data set [6] (setting [9]) and in data set [7] (setting [10]) were 22 µM and 129 µM, respectively.

Source of the values: patent publication US10751301B2, “Methods for inhibiting conversion of choline to trimethylamine (TMA)” (The Procter & Gamble Company, priority 2017, dated 2020).
